Source: patent US11091419B2, “Preparation and purification of biphenyldicarboxylic acids” (ExxonMobil Chemical Patents Inc., priority 2017, dated 2021)

Assay: solubility versus temperature in water (FIG. 2)
Format: physicochemical
Conditions: read from FIG. 2

water solubility (BPDA loading in the aqueous phase) (320° C.): ca. 10 wt % | water solubility (BPDA loading in the aqueous phase) (340° C.): ca. 20 wt %
SMILES: O=C(O)c1ccc(-c2ccc(C(=O)O)cc2)cc1 [4,4′-BPDA, 4,4′-biphenyldicarboxylic acid]
